Where only a bound is given, the exact number is not on record here.

The target in one data set is T1, CyPJ (Homo sapiens, UniProt Q9H2H8).
T1 construct: made in house
T1 sequence (Q9H2H8 1-161): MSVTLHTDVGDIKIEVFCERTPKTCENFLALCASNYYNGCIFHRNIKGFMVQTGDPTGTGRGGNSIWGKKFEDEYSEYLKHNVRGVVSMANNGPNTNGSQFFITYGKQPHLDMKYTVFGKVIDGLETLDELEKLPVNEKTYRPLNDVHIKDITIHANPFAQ
Kind of data set: Surface plasmon resonance (SPR) binding assay. Particulars: Biacore 3000, recombinant human CyPJ immobilized on CM5 chip, 20°C, compounds 0.3–10 μM. As for the experimental part: The binding affinity of the selected compounds to CyPJ was measured by SPR with a Biacore 3000 instrument (Biacore AB Corporation, Uppsala, Sweden) as previously described ([Guo et al., 2005]; [Chen et al., 2007]). Briefly, recombinant human CyPJ protein was immobilized on an activated sensor chip via amine coupling. CyPJ protein (10 μM) was coupled to a CM5 sensor chip surface (a carboxymethylated dextran surface; CM5 chip from Biacore, Inc., Piscataway, NJ, United States) in a buffer containing 10 mM sodium acetate (pH 4.0) using standard amine coupling chemistry according to the manufacturer’s instructions. Flow cell 1 (FC-1) was used as the control surface and flow cell 2 (FC-2) contained 9000 resonance units (RU) of CyPJ (1 RU corresponds to 1 pg of protein per mm^2). The buffer stream was passed through FC-1 and FC-2 of the bi-channel at a flow rate of 40 μl/min. Compounds to be tested were purchased from SPECS (Netherlands). All chemicals were of the highest purity available, as certified by the vendor. All compounds were stocked in 100% dimethylsulfoxide at 10 mM and diluted at graded concentrations (0.3–10 μM) with HBS-EP buffer (0.01 M HEPES buffer, pH 7.4, containing 0.15 M NaCl, 3.4 mM EDTA, and 0.005% surfactant P20) containing 1% dimethylsulfoxide. The temperature of the instrument was set to 20°C, and the flow rate was set to 40 μl/min. Each compound (50 μl) was injected sequentially. NaOH (50 mM) was used to regenerate the surface of the CM5 chip. The 1:1 Langmuir binding model was used to determine the equilibrium dissociation constant (KD). For fast interactions, the steady-state model was used to determine KD values. All experiments were carried out in triplicate.
(In SPR one partner is held on a chip, and binding of the other changes the refractive index at the surface.)

The next data set addresses T2, CyPJ PPIase (Homo sapiens, UniProt Q9H2H8).
T2 construct: made in house
T2 sequence (Q9H2H8 1-161): T1 sequence (Q9H2H8 1-161)
Kind of data set: α-chymotrypsin-coupled PPIase assay. The note with it: read-out: Compound IC50 for PPIase. Format: biochemical. As for the experimental part: We used an α-chymotrypsin-coupled PPIase assay, where the substrate succinyl-Ala-Ala-Pro-Phe-p-nitroanilide (Suc-AAPF-pNA) is first converted to the trans conformation by PPIase, and can then be digested by α-chymotrypsin to release chromogenic p-nitroanilide; the latter compound is then monitored with a spectrometer. Briefly, the assay was performed under 8°C in a 100 μl system. The Suc-AAPF-pNA was dissolved in the […] containing 480 mM of LiCl (working concentration: 3.0 mM). The α-chymotrypsin was dissolved in 1 mM HCl (working concentration: […]). When assayed, each test compound was diluted in 94 μl of assay buffer (50 mM HEPES, 100 mM NaCl; pH 8.0 at 0°C), and then mixed with 2 μl of CyPJ solution (5 μM). […] Three independent experiments were performed for each test compound and the respective half maximal inhibitory concentration (IC50) was calculated with OriginPro 7.5 software (OriginLab, Northampton, MA, United States).
The inhibitory effect of each compounds was determined with a standard spectrophotometric method in chymotrypsin-coupled assays with different concentrations of peptide substrate. The rate constants for the cis–trans conversion were evaluated by fitting the data to the integrated first-order rate equation through nonlinear least-square analysis.

A further data set has as its system SK-HEP1 HCC cells. Description: MTT-based cell proliferation assay, SK-HEP1. The arrangement: species or system human. Particulars: Homo sapiens, SK-HEP1, Table 2, 48 h. As for the experimental part: (§1) Human HCC cells SK-HEP1 and QGY; breast cancer cells HCC1954, BT474, and MDA-MB468; ovarian cancer cells SKOV3; and prostate cancer cells PC3 and LNCaP were purchased from the Cell Bank of Chinese Academy of Sciences (Shanghai, China), and cultured in T75 flasks with complete DMEM or RPMI 1640 medium (GIBCO, Invitrogen, Gaithersburg, CA, United States) supplemented with 10% FBS (Hyclone, New Zealand), and 1% penicillin/streptomycin (Solarbio, Beijing, China) at 37°C in a humidified atmosphere containing 5% CO2.
(§2) Cell proliferation was determined using methylthiazolyl diphenyl-tetrazolium bromide assay (MTT; Sigma–Aldrich). The cells were seeded onto 96-well plates in a total volume of 150 μl at a density of 3.5 × 10^4 cells/well. […] To avoid the effect of the solvent, the concentration of DMSO was less than 0.1% (v/v) in all experiments. After incubation at 37°C for 48 h, 10 μl of MTT solution (5 mg/ml) was added and continued to incubate for 4 h. Following removal of medium containing MTT, 200 μl of DMSO was added to dissolve the formazan crystals formed by live cells. Solution absorbance was measured at 490 nm with an absorbance microplate reader (BioTek, Winooski, VT, United States). The assay was repeated six times. The IC50 value was determined from plot of % viability against the dose of compounds added.

For another data set, the system named is QGY HCC cells. Description: MTT-based cell proliferation assay, QGY. The arrangement: species or system human. The note with it: Homo sapiens, Table 2, 48 h. As for the experimental part: as §1, §2
Data set [1] can be described thus: Blood serum level after intraperitoneal administration. Format: in vivo. The note with it: blood serum (unpublished data).
The test system of data set [2] is xenograft mouse tumor model. Description: In vivo xenograft mouse tumor model. Particulars: xenograft mouse tumor model (unpublished data).

As usually defined, the Kd is a measure of binding affinity in units of concentration. In general, IC50 refers to the concentration that gives 50% inhibition. Turning to `CN(C)C(=O)Nc1ccc2nc(-c3ccco3)c(-c3ccco3)nc2c1` [ZX-J-19], the Kd at CyPJ is 16.7 µM. Besides, the half-maximal inhibitory concentration (IC50) on CyPJ PPIase stood at 15.949 ± 0.012 µM; in the data set with SK-HEP1 HCC cells, 40.44 ± 0.033 µM; with QGY HCC cells, 52.438 ± 0.019 µM. Besides, in data set [1], the “time until absorbed and accumulated in blood serum” value was at most 10 min. The “time until declined and diminished to control levels” value in data set [1] is 8 h. Moreover, the “antitumor activity in vivo” value in data set [2] was “poor antitumor activity”.

(Values after PMC5826973 (Frontiers in Pharmacology, 2018).)
